The values that follow come from patent US5459270A, “Azacyclic compounds, processes for their preparation and pharmaceutical compositions containing them” (Merck Sharp & Dohme Limited, priority 1991, dated 1995).

The assay has as its target human neurokinin-1-receptor (NK1R) (Homo sapiens, UniProt P25103). In words: biochemical. The settings on record: for inhibition at 0.3 µM: read-out: % @ 300 nM (in column IC50 @ NKIR); for IC50: displacement of 125I-substance P. The assay is classed as binding. The procedure: To express the cloned human neurokinin-1-receptor (NK1R) transiently in COS, the cDNA for the human NK1R was cloned into the expression vector pCDM9 which was derived from pCDM8 (INVITROGEN) by inserting the ampicillin resistance gene (nucleotide 1973 to 2964 from BLUESCRIPT SK+ (trademark, […], La Jolla, Calif., USA)) into the Sac II site. Transfection of 20 ug of the plasmid DNA into 10 million COS cells was achieved by electroporation in 800 μl of transfection buffer (135 mM NaCl, 1.2 mM CaCl2, 1.2 mM MgCl2, 2.4 mM K2 HPO4, 0.6 mM KH2 PO4, 10 mM glucose, 10 mM N-2-hydroxyethyl-piperazine-N'-2-ethane sulphonic acid (HEPES) pH 7.4) at 260 V and 950 μF using the IBI GENEZAPPER (trademark IBI, New Haven, Conn., USA). The cells were incubated in 10% fetal calf serum, 2 mM glutamine, 100 U/ml penicillin-streptomycin, and 90% DMEM media (GIBCO, Grand Island, N.Y., USA) in 5% CO2 at 37° C. for three days before the binding assay.
To establish a stable cell line expressing cloned human NK1R, the cDNA was subcloned into the vector pRcCMV (INVITROGEN). Transfection of 20 μg of the plasmid DNA into CHO cells was achieved by electroporation in 800 μl of transfection buffer supplemented with 0.625 mg/ml Herring sperm DNA at 300 V and 950 μF using the IBI GENEZAPPER (IBI). The transfected cells were incubated in CHO media [10% fetal calf serum, 100 U/ml penicillin-streptomycin, 2 mM glutamine, 1/500 hypoxanthine-thymidine (ATCC), 90% IMDM media (JRH BIOSCIENCES, Lenexa, Kans., USA), 0.7 mg/ml G418 (GIBCO)] in 5% CO2 at 37° C. until colonies were visible. Each colony was separated and propagated. The cell clone with the highest number of human NK1R was selected for subsequent applications such as drug screening.
The binding assay of human NK1R expressed in either COS or CHO cells is based on the use of ^125 I-substance P (^125 I-SP, from DU PONT, Boston, Mass.) as a radioactively labeled ligand which competes with unlabeled substance P or any other ligand for binding to the human NK1R. […] The tubes were incubated at 4° C. or at room temperature for 1 hour with gentle shaking. The bound radioactivity was separated from unbound radioactivity by GF/C filter (BRANDEL, Gaithersburg, Md.) which was pre-wetted with 0.1% polyethylenimine. The filter was washed with 3 ml of wash buffer (50 mM Tris pH 7.5, 5 mM MnCl2, 50 mM NaCl) three times and its radioactivity was determined by gamma counter.
In general terms: Loss of bound radioactivity is the signal in a displacement assay; it reports binding, not function.

The mark [1] stands for this setting: human NK1R in COS or CHO cells, read-out: IC50 @ NKIR.
Where [2] appears, read: 1 h, 300 nM, human NK1R in COS or CHO cells, 125I-substance P.

The structures appear in SMILES notation. Where “and” joins values, the source holds several entries; their conditions need not be identical. Equal values may be shown once. Where a name gives a salt, the structure may show the parent alone. Read-outs that look alike come from different tables or passages of the source.

human neurokinin-1-receptor (NK1R), sequence (P25103 whole entry): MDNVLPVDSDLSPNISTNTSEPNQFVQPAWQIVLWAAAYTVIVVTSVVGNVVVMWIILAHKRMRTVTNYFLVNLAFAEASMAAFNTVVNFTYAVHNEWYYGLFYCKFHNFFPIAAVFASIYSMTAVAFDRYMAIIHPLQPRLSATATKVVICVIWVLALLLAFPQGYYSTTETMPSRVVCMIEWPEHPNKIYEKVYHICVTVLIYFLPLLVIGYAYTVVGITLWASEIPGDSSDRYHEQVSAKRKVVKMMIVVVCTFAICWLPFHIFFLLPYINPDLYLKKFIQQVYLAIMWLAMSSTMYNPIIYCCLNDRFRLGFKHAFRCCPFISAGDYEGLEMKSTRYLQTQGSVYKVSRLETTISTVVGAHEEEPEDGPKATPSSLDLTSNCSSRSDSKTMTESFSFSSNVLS

With `COc1ccc([N+](=O)[O-])cc1CO[C@H]1CCCN[C@H]1c1ccccc1` (relative stereo) [Example 45, cis-3-((2-Methoxy-5-nitrophenyl)methyloxy)-2-phenylpiperidine hydrochloride salt], the inhibition at 0.3 µM (1 h) was 42%.

What is called IC50 is the concentration that gives 50% inhibition. As to `Cc1ccc([C@@H]2NCCC[C@@H]2OCc2cc(C(F)(F)F)cc(C(F)(F)F)c2)cc1` (relative stereo) [Example 24, cis-3-(3,5,-Bis(trifluoromethyl)phenyl)methyloxy)-2-(4-methylphenyl)piperidine hydrochloride salt], the IC50 under setting [1] worked out at 15 nM. Take `FC(F)(F)c1cc(CO[C@H]2CCCN[C@H]2c2ccccc2Cl)cc(C(F)(F)F)c1` (relative stereo) [Example 21, cis-3-((3,5-Bis(trifluoromethyl)phenyl)methyloxy)-2-(2-chlorophenyl)piperidine]: the IC50 under setting [1] is 40 nM. `COC(=O)C(C)N1CCCC(OCc2cc(C(F)(F)F)cc(C(F)(F)F)c2)C1c1ccccc1` (single isomer, unassigned) [Example 18]: under setting [1], the IC50 is 0.6 nM. Take `FC(F)(F)c1cc(CO[C@H]2CCCN(Cc3cc(C(F)(F)F)cc(C(F)(F)F)c3)[C@H]2c2ccccc2)cc(C(F)(F)F)c1` (relative stereo) [Example 42]: the inhibition at 0.3 µM under setting [2] was 45%. For `C[N+]1(C)CCC[C@H](OCc2cc(C(F)(F)F)cc(C(F)(F)F)c2)[C@@H]1c1ccccc1` [Example 14, (2S,3S)-3-((3,5-Bis(trifluoromethyl)phenyl)methyloxy)-1,1-dimethyl2-phenylpiperidinium iodide], the IC50 under setting [1] worked out at 100 nM. On to `FC(F)(F)c1cc(CO[C@H]2CCCN[C@H]2c2ccccn2)cc(C(F)(F)F)c1` (relative stereo) [Example 26, cis-3-((3,5-Bis(trifluoromethyl)phenyl)methyloxy)-2-pyridyl piperidine dihydrochloride salt], for which the inhibition at 0.3 µM under setting [2] was 41%.

In the case of `COC(=O)CCCN1CCC[C@H](OCc2cc(C(F)(F)F)cc(C(F)(F)F)c2)[C@@H]1c1ccccc1` (relative stereo) [Example 31, cis-3-((3,5Bis(trifluoromethyl)phenyl)methyloxy)-1-(3-carbomethoxy)propyl-2-phenylpiperidine], the IC50 under setting [1] was found to be 100 nM. Consider `Cc1cc(CO[C@H]2CCCN[C@H]2c2ccccc2)cc([Si](C)(C)C)c1` [Example 44, cis-3-((3-methyl-5-trimethylsilyl)benzyloxy)-2-phenyl piperidine], for which the IC50 (IC50 @ NKIR, human NK1R in COS or CHO cells) stood at 0.3 nM.

Turning to `Cc1cc(C)cc(CO[C@H]2CN(C)[C@H]2c2ccccc2)c1` (relative stereo) [Example 51, cis-3-((3,5-Dimethylphenyl)methyloxy)-1-methyl-2-phenyl azetidine oxalate salt], the inhibition at 1 µM (1 h, read-out: % @ 1 μM (in column IC50 @ NKIR)) stood at 40%. For `CC(C(N)=O)N1CCC[C@H](OCc2cc(C(F)(F)F)cc(C(F)(F)F)c2)[C@@H]1c1ccccc1` (single isomer, unassigned) [Example 19, hydrochloride], under setting [1], the concentration for half-maximal inhibition (IC50) came out at 0.9 nM.

Turning to `FC(F)(F)c1cc(CO[C@H]2CCCN[C@H]2c2ccccc2)cc(C(F)(F)F)c1` (relative stereo) [Example 4, cis-3-((3,5-Bis(trifluoromethyl)phenyl)methyloxy)-2-phenylpiperidine hydrochloride salt], the IC50 under setting [1] is 2 nM and 1.4 nM. Regarding `FC(F)(F)c1cc(CO[C@H]2CCCN[C@H]2c2cccc(Cl)c2)cc(C(F)(F)F)c1` (relative stereo) [Example 22, cis-3-((3,5-Bis(trifluoromethyl)phenyl)methyloxy)-2-(3-chlorophenyl)piperidine hydrochloride salt], under setting [1], the IC50 was found to be 5 nM.
